Laboratory results taken from ChEMBL document CHEMBL1201862, “PubChem BioAssay data set” (2004).
One block for each compound: values may come before it. Activity calls are given as the source filed them.

Columns and labels:
Estrogen receptor beta [1] = target: T1, Estrogen receptor beta (Homo sapiens, UniProt Q92731);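 note: recombinant ER-beta bound to coactivator SRC1 peptide in presence of estradiol agonist; inhibitors block coactivator peptide binding and lower the FRET signal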
Estrogen receptor beta [2] = target: T1, Estrogen receptor beta; assay: ERβ–SRC-3 coactivator interaction inhibitors, confirmation, orthogonal assay, biochemical, ELISA, streptavidin-HRP readout (AID 1060)
SUMO E1/E2 = SUMO E1/E2 (Homo sapiens, UniProt P63279+Q9UBE0+Q9UBT2); assay: SAR analysis of SUMOylation using HTRF in an in-Vitro dose response assay. [Related pubchem assays (depositor defined):AID2006, AID2011, AID2018, AID2069, AID2658]; assay type: functional
[3] = target: T2, Voltage-gated N-type calcium channel alpha-1B subunit/Amyloid beta A4 precursor protein-binding family A member 1 (Homo sapiens, UniProt Q00975+Q02410); assay: disruptors of Mint-PDZ/N-type channel peptide interaction – biochemical, HTRF, set 2, SAR follow-up (AID 434980); assay type: functional
T2 sequence (Q00975 whole entry): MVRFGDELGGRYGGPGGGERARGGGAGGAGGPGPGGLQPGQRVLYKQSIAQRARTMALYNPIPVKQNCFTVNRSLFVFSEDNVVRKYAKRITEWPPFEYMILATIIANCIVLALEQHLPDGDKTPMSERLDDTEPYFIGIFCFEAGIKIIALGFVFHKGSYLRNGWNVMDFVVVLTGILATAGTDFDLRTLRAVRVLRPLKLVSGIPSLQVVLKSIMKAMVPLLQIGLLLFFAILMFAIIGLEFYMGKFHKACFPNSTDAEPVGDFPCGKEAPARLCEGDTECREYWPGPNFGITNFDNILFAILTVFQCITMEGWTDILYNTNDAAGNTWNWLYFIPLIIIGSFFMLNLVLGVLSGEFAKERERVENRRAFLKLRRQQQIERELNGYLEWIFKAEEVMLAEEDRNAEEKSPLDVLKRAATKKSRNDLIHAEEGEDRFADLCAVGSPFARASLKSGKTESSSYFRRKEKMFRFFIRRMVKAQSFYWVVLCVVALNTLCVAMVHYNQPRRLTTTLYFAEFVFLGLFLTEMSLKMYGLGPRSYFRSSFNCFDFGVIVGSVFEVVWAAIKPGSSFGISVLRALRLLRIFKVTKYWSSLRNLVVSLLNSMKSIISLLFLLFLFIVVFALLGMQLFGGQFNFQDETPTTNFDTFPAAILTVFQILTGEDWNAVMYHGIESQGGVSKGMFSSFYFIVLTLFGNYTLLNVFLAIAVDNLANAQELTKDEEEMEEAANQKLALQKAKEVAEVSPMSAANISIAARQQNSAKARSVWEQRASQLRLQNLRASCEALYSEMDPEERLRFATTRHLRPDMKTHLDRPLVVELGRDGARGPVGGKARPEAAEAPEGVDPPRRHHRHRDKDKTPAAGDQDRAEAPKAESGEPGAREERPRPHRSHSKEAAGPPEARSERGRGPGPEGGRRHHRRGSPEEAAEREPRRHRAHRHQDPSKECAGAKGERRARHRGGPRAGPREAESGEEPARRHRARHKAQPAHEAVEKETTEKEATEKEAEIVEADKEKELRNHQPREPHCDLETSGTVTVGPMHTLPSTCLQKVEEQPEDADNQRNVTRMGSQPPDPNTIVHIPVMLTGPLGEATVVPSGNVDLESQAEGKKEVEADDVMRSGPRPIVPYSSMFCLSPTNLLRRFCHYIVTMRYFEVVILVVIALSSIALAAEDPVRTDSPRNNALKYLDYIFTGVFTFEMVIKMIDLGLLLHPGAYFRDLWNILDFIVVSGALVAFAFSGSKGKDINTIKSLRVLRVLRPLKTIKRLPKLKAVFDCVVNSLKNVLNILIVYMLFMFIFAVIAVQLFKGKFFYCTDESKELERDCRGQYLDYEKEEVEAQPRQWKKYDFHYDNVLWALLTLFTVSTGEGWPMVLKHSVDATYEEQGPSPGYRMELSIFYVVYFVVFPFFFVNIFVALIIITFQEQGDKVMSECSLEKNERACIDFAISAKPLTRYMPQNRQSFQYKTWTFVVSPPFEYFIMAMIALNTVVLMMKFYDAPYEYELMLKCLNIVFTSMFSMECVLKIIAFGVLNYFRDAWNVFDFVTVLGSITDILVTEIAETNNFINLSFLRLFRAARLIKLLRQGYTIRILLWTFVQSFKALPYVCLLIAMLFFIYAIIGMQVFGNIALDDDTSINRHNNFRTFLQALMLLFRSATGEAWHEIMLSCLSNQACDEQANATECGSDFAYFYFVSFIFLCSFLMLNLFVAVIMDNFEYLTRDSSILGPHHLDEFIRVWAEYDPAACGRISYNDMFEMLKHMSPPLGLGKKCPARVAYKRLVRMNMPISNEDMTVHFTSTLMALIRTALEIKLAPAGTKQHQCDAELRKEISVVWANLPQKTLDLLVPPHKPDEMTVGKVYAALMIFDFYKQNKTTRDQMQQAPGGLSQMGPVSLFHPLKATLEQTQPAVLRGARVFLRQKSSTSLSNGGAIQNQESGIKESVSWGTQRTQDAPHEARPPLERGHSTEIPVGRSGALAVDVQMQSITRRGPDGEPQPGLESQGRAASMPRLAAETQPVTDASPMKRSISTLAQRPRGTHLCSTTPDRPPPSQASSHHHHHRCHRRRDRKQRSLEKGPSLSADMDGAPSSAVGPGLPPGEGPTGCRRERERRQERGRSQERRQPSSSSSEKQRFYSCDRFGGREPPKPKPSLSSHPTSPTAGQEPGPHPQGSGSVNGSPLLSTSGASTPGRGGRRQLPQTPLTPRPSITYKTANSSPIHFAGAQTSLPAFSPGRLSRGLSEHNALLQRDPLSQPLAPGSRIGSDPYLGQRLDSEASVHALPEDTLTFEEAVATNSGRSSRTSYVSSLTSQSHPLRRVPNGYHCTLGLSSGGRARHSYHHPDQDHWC
T2 sequence (Q02410 whole entry): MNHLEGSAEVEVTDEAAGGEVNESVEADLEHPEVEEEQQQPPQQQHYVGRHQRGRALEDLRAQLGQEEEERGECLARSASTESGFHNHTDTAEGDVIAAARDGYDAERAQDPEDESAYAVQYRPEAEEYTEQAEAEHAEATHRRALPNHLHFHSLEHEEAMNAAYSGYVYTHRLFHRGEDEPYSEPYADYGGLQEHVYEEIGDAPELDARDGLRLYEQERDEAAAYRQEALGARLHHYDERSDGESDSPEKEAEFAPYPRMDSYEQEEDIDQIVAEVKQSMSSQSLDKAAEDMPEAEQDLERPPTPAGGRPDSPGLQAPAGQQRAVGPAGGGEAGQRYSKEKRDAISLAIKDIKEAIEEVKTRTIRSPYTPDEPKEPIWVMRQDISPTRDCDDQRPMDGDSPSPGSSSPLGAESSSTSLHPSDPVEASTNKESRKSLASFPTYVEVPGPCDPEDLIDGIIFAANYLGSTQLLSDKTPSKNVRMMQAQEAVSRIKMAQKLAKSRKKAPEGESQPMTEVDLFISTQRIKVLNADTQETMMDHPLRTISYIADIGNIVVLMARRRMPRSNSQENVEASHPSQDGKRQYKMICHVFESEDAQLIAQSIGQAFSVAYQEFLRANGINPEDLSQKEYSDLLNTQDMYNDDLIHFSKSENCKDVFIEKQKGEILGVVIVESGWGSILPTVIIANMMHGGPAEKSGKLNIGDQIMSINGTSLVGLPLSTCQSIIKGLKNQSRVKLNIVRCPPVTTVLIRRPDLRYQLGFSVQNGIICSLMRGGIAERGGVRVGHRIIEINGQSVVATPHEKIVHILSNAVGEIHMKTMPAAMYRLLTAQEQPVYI

[4] = target: T2, Voltage-gated N-type calcium channel alpha-1B subunit/Amyloid beta A4 precursor protein-binding family A member 1; assay: disruptors of Mint-PDZ/N-type channel peptide interaction – biochemical, HTRF, SAR follow-up (AID 2489); assay type: functional
[5] = target: Lysine-specific demethylase 4A (Homo sapiens, UniProt O75164); assay: JMJD2A histone demethylase inhibitors, dose response, selectivity assay for GASC-1 inhibitor project, biochemical, DELFIA europium, cherry-picked samples (AID 488840)
[6] = target: T3, Lysine-specific demethylase 4C (Homo sapiens, UniProt Q9H3R0); assay: GASC-1 (JMJD2C) histone demethylase inhibitors, dose response, biochemical, DELFIA europium, cherry-picked samples (AID 488835); assay type: functional
T3 sequence (Q9H3R0 whole entry): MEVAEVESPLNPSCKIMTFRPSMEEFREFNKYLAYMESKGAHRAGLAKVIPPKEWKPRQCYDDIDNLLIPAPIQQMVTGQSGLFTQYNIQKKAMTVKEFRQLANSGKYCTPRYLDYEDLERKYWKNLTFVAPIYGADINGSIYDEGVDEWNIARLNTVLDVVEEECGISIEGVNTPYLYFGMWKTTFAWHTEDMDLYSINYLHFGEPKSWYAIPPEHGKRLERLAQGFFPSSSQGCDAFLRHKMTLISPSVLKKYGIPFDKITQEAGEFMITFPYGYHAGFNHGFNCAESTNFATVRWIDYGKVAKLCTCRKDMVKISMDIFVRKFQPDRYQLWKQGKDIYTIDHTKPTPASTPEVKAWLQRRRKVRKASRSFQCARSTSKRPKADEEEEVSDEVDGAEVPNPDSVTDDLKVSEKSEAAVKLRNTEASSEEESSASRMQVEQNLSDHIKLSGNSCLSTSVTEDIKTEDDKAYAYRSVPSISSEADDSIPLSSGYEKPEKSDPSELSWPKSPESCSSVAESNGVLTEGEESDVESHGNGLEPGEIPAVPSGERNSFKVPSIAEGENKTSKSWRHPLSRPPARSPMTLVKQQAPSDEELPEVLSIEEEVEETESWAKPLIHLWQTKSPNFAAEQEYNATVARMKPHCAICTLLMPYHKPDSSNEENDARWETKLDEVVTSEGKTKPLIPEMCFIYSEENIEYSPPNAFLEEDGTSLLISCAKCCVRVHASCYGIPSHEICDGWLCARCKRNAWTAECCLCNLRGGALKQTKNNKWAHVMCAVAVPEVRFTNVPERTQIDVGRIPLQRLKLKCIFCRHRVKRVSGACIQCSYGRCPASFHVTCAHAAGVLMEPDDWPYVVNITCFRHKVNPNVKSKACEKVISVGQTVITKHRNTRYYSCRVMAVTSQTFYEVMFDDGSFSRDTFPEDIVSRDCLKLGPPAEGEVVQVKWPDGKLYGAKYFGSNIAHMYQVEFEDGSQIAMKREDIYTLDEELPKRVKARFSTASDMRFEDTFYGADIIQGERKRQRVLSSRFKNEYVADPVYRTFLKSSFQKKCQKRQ

fMet-Leu-Phe receptor = target: T4, fMet-Leu-Phe receptor (Homo sapiens, UniProt P21462); assay: FPR ligands, dose response (AID 519); assay type: functional
T4 sequence (P21462 whole entry): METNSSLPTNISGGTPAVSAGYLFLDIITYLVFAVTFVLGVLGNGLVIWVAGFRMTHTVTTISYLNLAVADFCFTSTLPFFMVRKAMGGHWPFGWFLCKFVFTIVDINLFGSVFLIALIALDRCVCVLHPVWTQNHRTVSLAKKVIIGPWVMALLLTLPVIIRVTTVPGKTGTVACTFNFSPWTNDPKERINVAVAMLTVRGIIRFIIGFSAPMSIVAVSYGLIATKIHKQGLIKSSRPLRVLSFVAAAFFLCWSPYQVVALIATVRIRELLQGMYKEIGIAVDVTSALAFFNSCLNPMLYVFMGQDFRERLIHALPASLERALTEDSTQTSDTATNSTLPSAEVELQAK

[7] = target: T5, Mannose-6-phosphate isomerase (Homo sapiens, UniProt P34949); assay: PMI enzyme inhibitors, confirmation, biochemical, fluorescence intensity (AID 1535)
T5 sequence (P34949 whole entry): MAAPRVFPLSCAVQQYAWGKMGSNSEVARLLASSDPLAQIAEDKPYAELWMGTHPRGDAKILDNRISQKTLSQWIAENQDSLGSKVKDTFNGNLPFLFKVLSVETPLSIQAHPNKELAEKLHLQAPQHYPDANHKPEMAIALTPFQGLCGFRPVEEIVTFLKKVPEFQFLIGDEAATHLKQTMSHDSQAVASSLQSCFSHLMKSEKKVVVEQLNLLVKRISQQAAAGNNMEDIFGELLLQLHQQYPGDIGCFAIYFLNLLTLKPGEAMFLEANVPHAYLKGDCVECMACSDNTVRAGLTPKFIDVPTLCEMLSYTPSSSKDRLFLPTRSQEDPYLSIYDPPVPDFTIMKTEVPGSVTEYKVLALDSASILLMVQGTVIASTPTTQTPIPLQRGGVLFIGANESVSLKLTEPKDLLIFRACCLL

Phosphomannomutase 2 = Phosphomannomutase 2 (Homo sapiens, UniProt O15305); assay: Counter screen SAR assay for PMM2 inhibitors via a fluorescence intensity assay. [Related pubchem assays (depositor defined):AID1545, AID1574]
Cytochrome P450 2C19 = Cytochrome P450 2C19 (Homo sapiens, UniProt P33261); assay: Cytochrome panel assay with activity outcomes. Panel member name: p450-cyp2c19 Compounds with AC50 equal or less than 10 uM are considered active; assay type: functional
Cytochrome P450 3A4 = Cytochrome P450 3A4 (Homo sapiens, UniProt P08684);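 note: CYP3A4 tested as one member of a cytochrome P450 panel screen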
Cytochrome P450 2D6 = Cytochrome P450 2D6 (Homo sapiens, UniProt P10635);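 note: CYP2D6 member of a cytochrome P450 panel assay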
Cytochrome P450 1A2 = target: T6, Cytochrome P450 1A2 (Homo sapiens, UniProt P05177);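 note: PubChem cytochrome P450 panel assay, CYP1A2 panel member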
T6 sequence (P05177 whole entry): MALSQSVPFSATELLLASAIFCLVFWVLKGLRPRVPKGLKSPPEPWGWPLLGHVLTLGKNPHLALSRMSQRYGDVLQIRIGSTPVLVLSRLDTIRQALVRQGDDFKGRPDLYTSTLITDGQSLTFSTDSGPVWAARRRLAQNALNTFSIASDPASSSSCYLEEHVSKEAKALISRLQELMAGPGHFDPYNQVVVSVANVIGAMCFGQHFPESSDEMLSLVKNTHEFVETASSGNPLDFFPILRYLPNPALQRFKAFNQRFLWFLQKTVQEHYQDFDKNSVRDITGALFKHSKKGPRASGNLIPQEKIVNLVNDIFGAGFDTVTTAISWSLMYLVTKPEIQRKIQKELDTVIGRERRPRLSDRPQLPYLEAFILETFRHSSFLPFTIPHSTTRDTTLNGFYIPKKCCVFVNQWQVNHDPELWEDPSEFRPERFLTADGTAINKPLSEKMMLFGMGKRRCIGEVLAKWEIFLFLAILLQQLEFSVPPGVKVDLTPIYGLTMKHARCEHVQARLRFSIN

Cytochrome P450 2C9 = Cytochrome P450 2C9 (Homo sapiens, UniProt P11712)
HEK293 [8] = assay: NOD1 signaling inhibitors, primary screen, cell-based, luminescence, uHTS (AID 1578); assay type: functional; conditions: Homo sapiens
HEK293 [9] = assay: cells; assay type: functional, cell-based; conditions: Homo sapiens
HEK293 [10] = assay: cells; assay type: functional, cell-based; conditions: Homo sapiens; remark: listed apart in the source
[11] = target: Nucleotide-binding oligomerization domain-containing protein 2 (Homo sapiens, UniProt Q9HC29); assay: NOD2 signaling inhibitors, cell-based, luminescence, uHTS, HEK293 (AID 1566); assay type: functional
HEK293 [12] = assay: NOD2 signaling inhibitors in MDP-stimulated cells, cell-based, uHTS, luminescence (AID 2001); assay type: functional; conditions: Homo sapiens
HEK293 [13] = assay: cells; assay type: functional, cell-based; conditions: Homo sapiens; remark: listed apart in the source
Tumor necrosis factor = Tumor necrosis factor (Homo sapiens, UniProt P01375); assay: TNFa-triggered NF-kB activation inhibitors, SAR follow-up, cell-based, revised (AID 2337); assay type: functional
[14] = target: Nucleotide-binding oligomerization domain-containing protein 1 (Homo sapiens, UniProt Q9Y239); assay: NOD1 signaling inhibitors, SAR follow-up, revised (AID 2333); assay type: functional
H9c2 = assay: cells; assay type: functional, cell-based; conditions: Rattus norvegicus, H9c2, Myocardium;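 note: confirmatory concentration-response retest of ultra-high-throughput screening hits for modulation of myocardial damage; cell death induced by hydrogen peroxide oxidative stress; compound pretreatment for 60 min then peroxide exposure for 2 h; potency is for protecting the cells against peroxide damage rather than for killing them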
HEK293 [15] = assay: cells; conditions: Homo sapiens
[16] = target: Nuclear receptor ROR-gamma (Homo sapiens, UniProt P51449); assay: ROR modulator nuclear receptor reporter panel, late-stage follow-up, ROR modulator project, cell-based, luciferase reporter, panel member RORG (AID 2117)
Sequence of Nuclear receptor ROR-gamma (P51449 whole entry): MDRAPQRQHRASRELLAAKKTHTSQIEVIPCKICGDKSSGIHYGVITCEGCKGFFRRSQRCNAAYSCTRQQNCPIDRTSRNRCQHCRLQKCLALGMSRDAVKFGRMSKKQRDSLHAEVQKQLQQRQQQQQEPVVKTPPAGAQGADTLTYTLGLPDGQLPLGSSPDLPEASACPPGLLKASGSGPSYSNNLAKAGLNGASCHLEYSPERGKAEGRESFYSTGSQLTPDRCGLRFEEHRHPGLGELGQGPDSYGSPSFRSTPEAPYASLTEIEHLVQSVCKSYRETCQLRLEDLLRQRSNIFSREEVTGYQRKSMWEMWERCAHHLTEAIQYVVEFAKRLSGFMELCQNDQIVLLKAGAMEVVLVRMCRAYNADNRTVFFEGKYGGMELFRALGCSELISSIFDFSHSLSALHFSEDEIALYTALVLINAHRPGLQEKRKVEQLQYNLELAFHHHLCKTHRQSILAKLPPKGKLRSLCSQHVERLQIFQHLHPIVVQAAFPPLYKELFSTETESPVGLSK

[17] = target: Nuclear receptor ROR-alpha (Homo sapiens, UniProt P35398); assay: ROR modulator nuclear receptor reporter panel, late-stage follow-up, ROR modulator project, cell-based, luciferase reporter, panel member RORA (AID 2117)
Sequence of Nuclear receptor ROR-alpha (P35398 whole entry): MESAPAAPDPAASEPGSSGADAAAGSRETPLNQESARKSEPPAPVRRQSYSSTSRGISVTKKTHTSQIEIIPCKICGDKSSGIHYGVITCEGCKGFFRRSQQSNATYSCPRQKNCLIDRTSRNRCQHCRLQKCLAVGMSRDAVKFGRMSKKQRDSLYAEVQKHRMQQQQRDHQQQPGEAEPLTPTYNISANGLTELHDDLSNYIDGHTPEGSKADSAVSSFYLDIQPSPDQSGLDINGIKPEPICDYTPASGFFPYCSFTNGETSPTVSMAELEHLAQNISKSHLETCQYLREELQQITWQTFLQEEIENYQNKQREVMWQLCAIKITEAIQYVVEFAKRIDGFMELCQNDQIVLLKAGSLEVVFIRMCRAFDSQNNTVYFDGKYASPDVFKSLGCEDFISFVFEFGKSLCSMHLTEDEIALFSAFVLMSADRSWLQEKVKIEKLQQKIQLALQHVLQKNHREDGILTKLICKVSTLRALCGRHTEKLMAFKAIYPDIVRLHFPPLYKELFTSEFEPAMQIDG

[18] = target: T7, G-protein coupled receptor 35 (Homo sapiens, UniProt Q9HC97); assay: GPR35 antagonists blocking zaprinast-driven arrestin recruitment, primary screen, imaging, U2OS, beta-arrestin-GFP, zaprinast agonist (AID 2058); assay type: functional;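 note: antagonist potency meaning inhibition of agonist-induced arrestin redistribution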
T7 sequence (Q9HC97 whole entry): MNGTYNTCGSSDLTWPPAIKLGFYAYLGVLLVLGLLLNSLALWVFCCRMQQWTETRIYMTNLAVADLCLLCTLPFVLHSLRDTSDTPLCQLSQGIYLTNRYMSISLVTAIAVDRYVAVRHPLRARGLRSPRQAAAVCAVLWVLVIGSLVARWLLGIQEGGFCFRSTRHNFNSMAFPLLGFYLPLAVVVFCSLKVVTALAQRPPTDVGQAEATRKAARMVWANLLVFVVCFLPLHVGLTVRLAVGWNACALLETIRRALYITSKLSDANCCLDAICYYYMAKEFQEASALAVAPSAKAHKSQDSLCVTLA

[19] = target: T7, G-protein coupled receptor 35; assay: SAR Analysis for the identification of Selective Antagonists of ERK1/2 Activity in GPR35-Overexpressing U2OS Cells. [Related pubchem assays: 2079, 2058 ]; assay type: functional, cell-based
[20] = target: G-protein coupled receptor 55 (Homo sapiens, UniProt Q9Y2T6); assay: GPR55 antagonists, SAR follow-up, counter-screen for GPR35 antagonist project, imaging, image-based (AID 2397); assay type: functional

T1 sequence (Q92731 whole entry): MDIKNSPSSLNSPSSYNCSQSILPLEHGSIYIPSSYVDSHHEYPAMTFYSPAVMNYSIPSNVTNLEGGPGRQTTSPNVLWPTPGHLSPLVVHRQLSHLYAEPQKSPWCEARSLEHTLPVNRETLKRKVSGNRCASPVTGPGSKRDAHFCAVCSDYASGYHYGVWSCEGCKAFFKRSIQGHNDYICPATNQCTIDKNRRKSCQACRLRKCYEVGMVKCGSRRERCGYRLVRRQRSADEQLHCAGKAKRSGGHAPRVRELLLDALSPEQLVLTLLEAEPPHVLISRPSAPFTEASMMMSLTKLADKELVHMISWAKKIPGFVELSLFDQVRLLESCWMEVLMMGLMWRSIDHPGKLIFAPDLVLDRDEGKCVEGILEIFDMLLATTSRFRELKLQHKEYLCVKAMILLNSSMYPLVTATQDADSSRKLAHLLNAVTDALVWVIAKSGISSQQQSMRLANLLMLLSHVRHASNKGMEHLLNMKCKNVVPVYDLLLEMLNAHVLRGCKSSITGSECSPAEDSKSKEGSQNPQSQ

SMILES: Clc1nss/c1=N\c1nc2ccccc2s1
- IC50 [7]: > 100 µM (inactive)
- IC50 (Phosphomannomutase 2): > 100 µM (inactive)

SMILES: N#Cc1cccc(NC(=O)N2CC[C@@]3(CCCN(C(=O)Oc4ccccc4)C3)C2)c1
- AC50 (Cytochrome P450 2C19): inconclusive
- AC50 (Cytochrome P450 3A4): 2.51 µM (inconclusive)
- AC50 (Cytochrome P450 2D6): inconclusive
- AC50 (Cytochrome P450 1A2): inconclusive
- AC50 (Cytochrome P450 2C9): inconclusive

SMILES: Cc1c(O)ccc2c(-c3ccccc3)cc(=O)oc12
- EC50 (HEK293 [8]): 16.3 µM (active)
- IC50 (HEK293 [9]): 5.78 µM (active)
- IC50 (HEK293 [10]): > 20 µM (inactive)
- EC50 [11]: 4.67 µM (active)
- IC50 (HEK293 [12]): 6.85 µM (active)
- IC50 (HEK293 [13]): > 20 µM (inactive)
- IC50 (Tumor necrosis factor): 6.62 µM (active)
- IC50 [14]: 6.53 µM (active)
- IC50 (H9c2): > 79 µM (inactive)
- IC50 (HEK293 [15]): > 20 µM (inactive)

The remaining lines, values ahead:

- IC50 (Estrogen receptor beta [1]): < 1.56 µM (active)
- IC50 (Estrogen receptor beta [2]): > 50 µM (not active)
- IC50 (SUMO E1/E2): 6.59 µM (active)
- IC50 [3]: 11.4 µM (active)
- IC50 [4]: > 56.8 µM (inactive)
SMILES: COc1ccc(CNC(=O)COC(=O)c2cc(-c3ccco3)nc3ccccc23)cc1

- AC50 [5]: 6.55 µM (active)
- AC50 [6]: 1.09 µM (active)
- Ki (fMet-Leu-Phe receptor): > 66.7 µM (inactive)
SMILES: O=c1cc(N2CCc3ccccc32)[nH]c(=O)n1Cc1ccc(F)cc1

- IC50 [16]: 1.94 µM (active)
- IC50 [17]: 7.75 µM (active)
SMILES: O=S(=O)(Nc1ccc(C(O)(C(F)(F)F)C(F)(F)F)cc1)c1cccc2ccccc12

- IC50 [18]: 1.2 µM (active)
- IC50 [19]: > 32 µM (not active)
- IC50 [20]: > 32 µM (inactive)
SMILES: Cc1nc(N2CCC(C)CC2)c2c(C)c(C(=O)Nc3ccc4c(c3)OCCO4)sc2n1
